Reference: patent US20240316054A1, “NOVEL PLK1 PROTEIN DEGRADATION-INDUCING COMPOUND” (UPPTHERA, INC., priority 2021, published 2024)

Assays:
BRD4 = molecular target: T1, BRD4 (Homo sapiens, UniProt O60885); test: Luciferase (HiBit) assay of BRD4 degradation in HEK293T LgBit (BRD4-HiBit KI) cells; format: cell-based; details: for BRD4 (luminescence value): compound 100 nM, luminescence at 8 hours, DMSO-only control
T1 construct: endogenous in cells; host or cells: HEK293T cells stably expressing LgBit, with CRISPR/Cas9 knock-in of HiBit at the BRD4 C-terminus
From the text: (§1) Cell lines were constructed by transfecting LgBit vector into HeLa and HEK293T cell lines to be stably expressed. Then, gRNA and a donor were created to express the HiBit amino acid sequence behind the C-terminus of the PLK1 and BRD4 proteins contained in each cell, and then inserted into the cells together with a vector capable of expressing CRISPR/Cas9. Only cells that had undergone knock-in after completion of insertion were selected and passaged to be used.
(§2) Compounds according to Comparative Examples and Examples were completely dissolved in DMSO (Sigma-Aldrich Cat. No. D2438, Lot. No. RNBJ6524) and used in the following experiments. The compound of Comparative Example was the HBL-4 compound disclosed in the document (see Mu et al., Biochem Biophys Res Commun., 2020, 521(4): 833), which targets PLK1 and BRD4 like the compounds of the present invention, and the DMSO-only treatment group was used as the control group.
As to HEK293T LgBit (BRD4-HiBit KI), 4×10^4 cells were seeded in each well of a 96-well white plate (SPL) and cultured in a total culture medium volume of 150 μl.
(§3) Each cell line was incubated in a CO2 incubator for 18 hours, and then Endurazine was added to each well to reach 4% of the total volume. Here, the concentration of each compound after the addition was 300 nM for HeLa LgBit (Plk1-HiBit KI) and 100 nM for HEK293T LgBit (BRD4-HiBit KI). Then, the wavelength of the plate reader was set to 470 to 480 nm, and luminescence was tracked in real time.

PLK1 = molecular target: T2, PLK1 (Homo sapiens, UniProt P53350); test: Luciferase (HiBit) assay of PLK1 degradation in HeLa LgBit (Plk1-HiBit KI) cells; format: cell-based; details: for PLK1 (luminescence value): released after thymidine block, compound 300 nM, luminescence at 9 hours, DMSO-only control
T2 construct: endogenous in cells; host or cells: HeLa cells stably expressing LgBit, with CRISPR/Cas9 knock-in of HiBit at the PLK1 C-terminus
T2 sequence (P53350 whole entry): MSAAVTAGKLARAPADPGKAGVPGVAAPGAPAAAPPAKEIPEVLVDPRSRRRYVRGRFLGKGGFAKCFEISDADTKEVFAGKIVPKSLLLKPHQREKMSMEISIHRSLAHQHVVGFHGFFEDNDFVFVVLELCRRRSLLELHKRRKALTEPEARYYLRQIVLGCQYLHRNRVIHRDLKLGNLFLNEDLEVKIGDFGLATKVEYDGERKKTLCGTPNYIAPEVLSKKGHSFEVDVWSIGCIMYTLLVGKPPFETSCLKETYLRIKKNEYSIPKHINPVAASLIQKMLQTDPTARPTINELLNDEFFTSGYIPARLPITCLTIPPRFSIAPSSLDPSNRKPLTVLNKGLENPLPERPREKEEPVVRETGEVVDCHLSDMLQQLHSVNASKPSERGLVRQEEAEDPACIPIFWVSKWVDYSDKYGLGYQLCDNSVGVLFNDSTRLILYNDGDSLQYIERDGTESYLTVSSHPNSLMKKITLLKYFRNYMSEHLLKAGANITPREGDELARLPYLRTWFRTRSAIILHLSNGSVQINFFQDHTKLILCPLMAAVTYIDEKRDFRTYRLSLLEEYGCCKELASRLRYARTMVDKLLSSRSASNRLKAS
From the text: as §1, §2
As to HeLa LgBit (Plk1-HiBit KI), cells were released after thymidine block, and then treated with compounds, and the process was as follows. Thymidine (Sigma-Aldrich Cat. No. T9250-5G) was completely dissolved in DW and used in the experiment. For thymidine block, cells were treated with 2 mM thymidine and incubated for 24 hours. For release and chemical treatment, the medium was suctioned and washed with 1×PBS. TyppLE™ was added and the cells were incubated for 5 min in a 37° C. CO2 incubator. Cells neutralized by adding complete medium were counted using the counter. For each well of a 96-well white plate (SPL), 3.3×10^4 cells were seeded in a total culture medium volume of 150 μl and incubated in a CO2 incubator.
as §3

| BRD4 (luminescence value) (BRD4) | PLK1 (luminescence value) (PLK1) | BRD4 degradation level (BRD4; 100 nM, 8 hours) [%] | PLK1 degradation level (PLK1; 300 nM, 9 hours) [%] | SMILES |
| --- | --- | --- | --- | --- |
| 0.629 | 0.343 |  |  | CC[C@@H]1C(=O)N(C)c2cnc(Nc3ccc(C(=O)N[C@H]4CC[C@H](N5CCN(CCOCCNc6cccc7c6C(=O)N(C6CCC(=O)NC6=O)C7=O)CC5)CC4)cc3OC)nc2N1C1CCCC1 (stereo partly drawn) [Compound 10, 4-(((R)-8-cyclopentyl-7-ethyl-5-methyl-6-oxo-5,6,7,8-tetrahydropteridin-2-yl)amino)-N-((1r,4R)-4-(4-(2-(2-((2-(2,6-dioxopiperidin-3-yl)-1,3-dioxoisoindolin-4-yl)amino)ethoxy)ethyl)piperazin-1-yl)cyclohexyl)-3-methoxybenzamide] |
| 0.692 | 0.208 |  |  | CC[C@@H]1C(=O)N(C)c2cnc(Nc3ccc(C(=O)NCCOCCOCCNc4cccc5c4C(=O)N(C4CCC(=O)NC4=O)C5=O)cc3)nc2N1C1CCCC1 (stereo partly drawn) [Compound 4, 4-(((R)-8-cyclopentyl-7-ethyl-5-methyl-6-oxo-5,6,7,8-tetrahydropteridin-2-yl)amino)-N-(2-(2-(2-((2-(2,6-dioxopiperidin-3-yl)-1,3-dioxoisoindolin-4-yl)amino)ethoxy)ethoxy)ethyl)benzamide] |
| 0.491 | 0.140 |  |  | CC[C@@H]1C(=O)N(C)c2cnc(Nc3ccc(C(=O)NCCOCCOCCOCCOCCNc4cccc5c4C(=O)N(C4CCC(=O)NC4=O)C5=O)cc3OC)nc2N1C1CCCC1 (stereo partly drawn) [Compound 5, 4-(((R)-8-cyclopentyl-7-ethyl-5-methyl-6-oxo-5,6,7,8-tetrahydropteridin-2-yl)amino)-N-(14-((2-(2,6-dioxopiperidin-3-yl)-1,3-dioxoisoindolin-4-yl)amino)-3,6,9,12-tetraoxatetradecyl)-3-methoxybenzamide] |
| 0.394 | 0.204 |  |  | CC[C@@H]1C(=O)N(C)c2cnc(Nc3ccc(C(=O)NC4CCN(C(=O)CCCNc5cccc6c5C(=O)N(C5CCC(=O)NC5=O)C6=O)CC4)cc3OC)nc2N1C1CCCC1 (stereo partly drawn) [Compound 8, 4-(((R)-8-cyclopentyl-7-ethyl-5-methyl-6-oxo-5,6,7,8-tetrahydropteridin-2-yl)amino)-N-(1-(4-((2-(2,6-dioxopiperidin-3-yl)-1,3-dioxoisoindolin-4-yl)amino)butanoyl)piperidin-4-yl)-3-methoxybenzamide] |
| 0.484 | 0.207 |  |  | COc1cc(C(=O)NCCOCCOCCNc2cccc3c2C(=O)N(C2CCC(=O)NC2=O)C3=O)ccc1Nc1ncc2c(n1)N(C1CCCCC1)[C@H](C)C(=O)N2C (stereo partly drawn) [Compound 9, 4-(((R)-8-cyclohexyl-5,7-dimethyl-6-oxo-5,6,7,8-tetrahydropteridin-2-yl)amino)-N-(2-(2-(2-((2-(2,6-dioxopiperidin-3-yl)-1,3-dioxoisoindolin-4-yl)amino)ethoxy)ethoxy)ethyl)-3-methoxybenzamide] |
| 0.223 | 0.148 | ≥ 80 | ≥ 80 | CC[C@@H]1C(=O)N(C)c2cnc(Nc3ccc(C(=O)NCCOCCOCCNc4cccc5c4C(=O)N(C4CCC(=O)NC4=O)C5=O)cc3OC)nc2N1C1CCCC1 (stereo partly drawn) [Comparative Example 1, reference compound] |
| 0.488 | 0.120 |  |  | CC[C@@H]1C(=O)N(C)c2cnc(Nc3ccc(C(=O)NC4CCN(C(=O)CCN5CCN(c6cccc7c6C(=O)N(C6CCC(=O)NC6=O)C7=O)CC5)CC4)cc3OC)nc2N1C1CCCC1 (stereo partly drawn) [Compound 7, 4-(((R)-8-cyclopentyl-7-ethyl-5-methyl-6-oxo-5,6,7,8-tetrahydropteridin-2-yl)amino)-N-(1-(3-(4-(2-(2,6-dioxopiperidin-3-yl)-1,3-dioxoisoindolin-4-yl)piperazin-1-yl)propanoyl)piperidin-4-yl)-3-methoxybenzamide] |
| 0.731 | 0.313 |  |  | CC[C@@H]1C(=O)N(C)c2cnc(Nc3ccc(C(=O)N[C@H]4CCN(C(=O)CCC(=O)N5CCN(c6cccc7c6C(=O)N(C6CCC(=O)NC6=O)C7=O)CC5)C4)cc3OC)nc2N1C1CCCC1 (stereo partly drawn) [Compound 6, 4-(((R)-8-cyclopentyl-7-ethyl-5-methyl-6-oxo-5,6,7,8-tetrahydropteridin-2-yl)amino)-N-((3S)-1-(4-(4-(2-(2,6-dioxopiperidin-3-yl)-1,3-dioxoisoindolin-4-yl)piperazin-1-yl)-4-oxobutanoyl)pyrrolidin-3-yl)-3-methoxybenzamide] |
